Results on two molecules are retold here after patent US8304236B2, “Modified biotin-binding protein” (Japan Tobacco Inc., priority 2008, dated 2012).

The target in test [1] is T1, tamavidin 2 (TM2), wild type, SEQ ID NO: 2, Pleurotus cornucopiae (Pleurotus cornucopiae, UniProt B9A0T7).
T1 sequence (B9A0T7 1-141): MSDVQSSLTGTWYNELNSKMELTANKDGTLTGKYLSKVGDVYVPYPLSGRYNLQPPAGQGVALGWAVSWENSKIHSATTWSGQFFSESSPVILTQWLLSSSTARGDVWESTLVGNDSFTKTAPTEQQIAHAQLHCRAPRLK
The experiment in a line: Biacore 3000 iminobiotin binding test (Example 2). The settings on record: Iminobiotin-BSA analyte, protein immobilized, pH 11, 25° C. Here is the method:
These samples were diluted with 10 mM acetate buffer (pH 5, Biacore) into about 50 μg/mL.
Immobilization was performed at 25° C. and a flow rate of 10 μL/min using HBS-EP (Biacore) as a running buffer. The TM2 and the TM2 mutant (about 4000 to 8000 RU) were immobilized on CM5 sensor chips (Biacore) by amine coupling. The activating time was set to 10 minutes.
The specific interaction was measured using iminobiotin BSA as an analyte (a material flowing in a flow channel) at 25° C. and a flow rate of 20 μL/min and using a CAPS buffer (50 mM CAPS, 150 mM NaCl, 0.005% Tween 20, pH 11) as the running buffer. Iminobiotin BSA was produced as follows: A highly purified BSA (Sigma, 2 mg) and NHS-iminobiotin (Pierce, 1 mg) were dissolved in 50 mM sodium borate (pH 8.0, 1 mL), followed by incubation at 4° C. for 2 hours. […] Subsequently, the iminobiotin-BSA produced by the process described above was similarly measured with the same flow cell.
Each constant of samples showing interaction was calculated using analysis software BIAevaluation ver. […] The dissociation constant (KD) was determined from kd/ka. […] Accordingly, in the analysis, the Rmax was calculated by conducting local fitting for each concentration, and only the results at concentrations (mainly 18.75 to 75 nM) approximated to the 1:1 (Langmuir) binding model were employed.
In general terms: Surface plasmon resonance follows binding to a sensor surface in real time, without labels.

The target in test [2] is tamavidin 2 (TM2) variant TM2 K141E, SEQ ID NO: 10 (Pleurotus cornucopiae, UniProt B9A0T7, K141E). Nature of the test: Biacore 3000 biotin-binding test of low-pI TM2 (Example 1). The settings on record: BSA-LCLC-Biotin (30.5 Å) immobilized; 25° C. As to the method:
(4) a TM2 mutant in which lysine at position 141 was replaced with glutamic acid (hereinafter referred to as “TM2 K141E; its nucleotide sequence is listed in SEQ ID NO: 9, and the amino acid sequence in SEQ ID NO: 10);
(§1) HBS-EP (Biacore) was used as a running buffer, and each low-pI TM2 (40 μL) was injected at 25° C. and a flow rate of 20 μL/min for 2 minutes.
(§2) From the resulting sensorgrams, the binding rate constant (ka), the dissociation rate constant (kd), and the dissociation constant (KD) were calculated using an analysis software, BIAevaluation version 4.1.

Test [3] concerns the target tamavidin 2 (TM2) variant TM2 K73Q, SEQ ID NO: 6 (Pleurotus cornucopiae, UniProt B9A0T7, K73Q). The test is described as above. The settings on record: SA-LC-Biotin (22.4 Å) immobilized; 25° C. As to the method: (2) a TM2 mutant in which lysine at position 73 was replaced with glutamine (hereinafter referred to as “TM2 K73Q”; its nucleotide sequence is listed in SEQ ID NO: 5, and the amino acid sequence in SEQ ID NO: 6);
as §1, §2

For test [4], the system named is tamavidin 2 (TM2) variant TM2 D40N, SEQ ID NO: 20. Nature of the test: Biacore 3000 biotin-binding test (Example 2). The arrangement: species or system Pleurotus cornucopiae. The settings on record: Biotin-LC-BSA. As to the method: As described above, a TM2 mutant in which aspartic acid at position 40 was replaced with asparagine (hereinafter referred to as “TM2 D40N”; its nucleotide sequence SEQ ID NO: 19, and the amino acid sequence in SEQ ID NO: 20) was constructed.
The solution was put into a dialysis tube (MWCO 6-8,000) and was dialyzed with 50 mM sodium carbonate (pH 6.7) at 4° C. overnight.
The amount for immobilization was adjusted to about 200 RU.
Accordingly, seven step measurement (3.125, 6.25, […], 25, 50, 100, and 200 nM) was conducted from the lowest concentration, without recycling steps. […] The measurement was performed at 25° C. The resulting sensorgrams were subjected to reaction kinetics analysis using analysis software BIAevaluation ver. 4.1 with a 1:1 binding model to calculate the binding rate constant (ka) and the dissociation rate constant (kd). The dissociation constant (KD) was determined from kd/ka. In the case where no recycling step is employed, the Rmax (maximum amount of binding analyte) decreases at each measurement. Accordingly, in the analysis, the Rmax was calculated by conducting local fitting for each concentration, and only the data of analyte concentrations that were approximated to the 1:1 binding model was employed.

In test [5] the target is tamavidin 2 (TM2) variant TM2 R104EK141E, SEQ ID NO: 16 (Pleurotus cornucopiae, UniProt B9A0T7, K141E/R104E). Nature of the test: Biacore 3000 biotin-binding test of low-pI TM2 (Example 1). The settings on record: SA-LC-Biotin (22.4 Å) immobilized; 25° C. Here is the method: (7) a TM2 mutant in which arginine at position 104 was replaced with glutamic acid, and lysine at position 141 was replaced with glutamic acid (hereinafter referred to as “TM2 R104EK141E”; its nucleotide sequence is listed in SEQ ID NO: 15, and the amino acid sequence in SEQ ID NO: 16).
Chain of tamavidin 2 (TM2) variant TM2 R104EK141E, SEQ ID NO: 16 (B9A0T7 entry or part of it R104E/K141E): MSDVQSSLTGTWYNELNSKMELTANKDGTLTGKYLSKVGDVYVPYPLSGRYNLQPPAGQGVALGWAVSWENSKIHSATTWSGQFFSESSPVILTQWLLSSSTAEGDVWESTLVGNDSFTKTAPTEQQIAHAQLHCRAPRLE
as §1, §2

The target in test [6] is tamavidin 2 (TM2) variant TM2 R104E, SEQ ID NO: 8 (Pleurotus cornucopiae, UniProt B9A0T7, R104E). The test is described as above. The settings on record: BSA-LCLC-Biotin (30.5 Å) immobilized; 25° C. Here is the method: (3) a TM2 mutant in which arginine at position 104 was replaced with glutamic acid (hereinafter referred to as “TM2 R104E; its nucleotide sequence is listed in SEQ ID NO: 7, and the amino acid sequence in SEQ ID NO: 8);
Chain of tamavidin 2 (TM2) variant TM2 R104E, SEQ ID NO: 8 (B9A0T7 entry or part of it R104E): as the sequence (B9A0T7 entry or part of it R104E/K141E) above, with E141K counted along it
as §1, §2

The target of test [7] is T1, tamavidin 2 (TM2), wild type, SEQ ID NO: 2, Pleurotus cornucopiae. The settings on record: WO2008/081938 A1; cited from earlier work.
Test [8] deals with tamavidin 2 (TM2) variant TM2 K26A, SEQ ID NO: 4 (Pleurotus cornucopiae, UniProt B9A0T7, K26A). The experiment in a line: Biacore 3000 biotin-binding test of low-pI TM2 (Example 1). The settings on record: SA-LC-Biotin (22.4 Å) immobilized; 25° C. Here is the method:
(1) a TM2 mutant in which lysine at position 26 was replaced with alanine (hereinafter referred to as “TM2 K26A”; its nucleotide sequence is listed in SEQ ID NO: 3 and the amino acid sequence in SEQ ID NO: 4);
as §1, §2

Test [9] relates to streptavidin. The settings on record: similarly measured; WO2008/081938 A1; cited from earlier work.
Test [10] has as its target tamavidin 2 (TM2) variant TM2 K33TK37A, SEQ ID NO: 12 (Pleurotus cornucopiae, UniProt B9A0T7, K33T/K37A). Nature of the test: Biacore 3000 biotin-binding test of low-pI TM2 (Example 1). The settings on record: BSA-LCLC-Biotin (30.5 Å) immobilized; 25° C. Here is the method:
(5) a TM2 mutant in which lysine at position 33 was replaced with threonine, and lysine at position 37 was replaced with alanine (hereinafter referred to as “TM2 K33TK37A”; its nucleotide sequence is listed in SEQ ID NO: 11, and the amino acid sequence in SEQ ID NO: 12);
as §1, §2

Test [11] has as its target T1, tamavidin 2 (TM2), wild type, SEQ ID NO: 2, Pleurotus cornucopiae. The experiment in a line: Biacore 3000 biotin binding test (Example 3). The settings on record: Biotin-BSA (22.4 Å) immobilized. Here is the method: TM2 and HALU TM2 used as analytes were prepared by purification with 2-iminobiotin agarose in accordance with a common method and dialysis with 20MM KPi (pH 7) overnight. The analytes were each adjusted to about 50 μg/mL in 10 mM acetate buffer (pH 5, Biacore).
The immobilization of the ligand and measurement and analysis of specific interaction with the analytes were conducted as in paragraph 2-7-2).

Test [12] has the same target. Nature of the test: Biacore 3000 biotin-binding test of low-pI TM2 (Example 1). The settings on record: 25° C. Here is the method:
as §1, §2

The target in test [13] is tamavidin 2 (TM2) variant TM2 K33TK37AR104E, SEQ ID NO: 14 (Pleurotus cornucopiae, UniProt B9A0T7, K33T/K37A/R104E). Described as above. The settings on record: BSA-LCLC-Biotin (30.5 Å) immobilized; 25° C. As to the method:
as §1, §2

Where two headings read alike, the source gives them in different places.

Chain of tamavidin 2 (TM2) variant TM2 K73Q, SEQ ID NO: 6 (B9A0T7 entry or part of it K73Q): as the sequence (B9A0T7 entry or part of it R104E/K141E) above, with K73Q, E104R, E141K counted along it
Chain of tamavidin 2 (TM2) variant TM2 K141E, SEQ ID NO: 10 (B9A0T7 entry or part of it K141E): as the sequence (B9A0T7 entry or part of it R104E/K141E) above, with E104R counted along it
Chain of tamavidin 2 (TM2) variant TM2 K33TK37AR104E, SEQ ID NO: 14 (B9A0T7 entry or part of it K33T/K37A/R104E): as the sequence (B9A0T7 entry or part of it R104E/K141E) above, with K33T, K37A, E141K counted along it
Chain of tamavidin 2 (TM2) variant TM2 K26A, SEQ ID NO: 4 (B9A0T7 entry or part of it K26A): as the sequence (B9A0T7 entry or part of it R104E/K141E) above, with K26A, E104R, E141K counted along it
Chain of tamavidin 2 (TM2) variant TM2 K33TK37A, SEQ ID NO: 12 (B9A0T7 entry or part of it K33T/K37A): as the sequence (B9A0T7 entry or part of it R104E/K141E) above, with K33T, K37A, E104R, E141K counted along it

Consider `N=C1N[C@H]2[C@H](CS[C@H]2CCCCC(=O)O)N1` [iminobiotin], for which the kon in test [1] (read-out: binding rate constant (ka)) stood at 130000 ± 5e+09 M⁻¹ s⁻¹. Also, the koff in test [1] (read-out: dissociation rate constant (kd)) was 0.0013 ± 6e-07 s⁻¹.

As for `O=C(O)CCCC[C@@H]1SC[C@@H]2NC(=O)N[C@@H]21` [biotin, D-[(+)-cis-hexahydro-2-oxo-1H-thieno-(3,4)-imidazole-4-valerate]], the “binding rate constant (ka)” value in test [2] is 5.8 × 10^5; in test [3] it was 5.9 × 10^5; in test [5], 1.2 × 10^6; in test [6], 5.8 × 10^5; in [7], 919000 M⁻¹ s⁻¹; in [8] it was 5.0 × 10^5. In addition, the “binding rate constant (ka)” value in test [9] was 2.28e+06 M⁻¹ s⁻¹; in test [10], 2.5 × 10^5; in [11], 9.9 × 10^5; in test [12] (BSA-LCLC-Biotin (30.5 Å) immobilized), 9.2 × 10^5; in test [12] (SA-LC-Biotin (22.4 Å) immobilized) it was 9.9 × 10^5; in test [13], 6.3 × 10^5. Moreover, the “change of binding rate constant (ka) compared to TM2” value in test [4] was “increased”. In addition, the “change of dissociation rate constant (kd) compared to TM2” value in test [4] is on record as “decreased”. Moreover, the “dissociation rate constant (kd)” value in test [7] was 6.83e-06 s⁻¹; in test [9] it was 2.52e-06 s⁻¹.
